From patent US20250147039A1, “Compounds for complexation of rare earth elements and/or s-, p-, d- block metals, their coordination compounds, peptide conjugates, method of their preparation and use thereof” (USTAV ORGANICKE CHEMIE A BIOCHEMIE AV CR V.V.I., priority 2021, published 2025)

Legend:
[1] = Formation of 1,5-cz-[M(Lig)] from Lig and M^III ions (metal dependent click-zip) (Charts 4, 5); assay type: physicochemical; conditions: MOPS/NaOH buffer pH 7.0, TD728, TD827 in 50% i-PrOH; for conversion to 1,5-cz-[M(Lig)], Y^III: TD714 sum of two diastereoisomers
[2] = Formation of 1,5-cz-[M(Lig)] from Lig and M^II ions (metal dependent click-zip) (Charts 6, 7); assay type: physicochemical; conditions: MOPS/NaOH buffer pH 7.0; for conversion to 1,5-cz-[M(Lig)], Ca^II / conversion to 1,5-cz-[M(Lig)], Cd^II: TD728 in 50% i-PrOH
[3] = Alkali metal dependent formation of 1,5-cz-Lig and 1,4-cz-Lig isomers from Lig at pH 10.2 (Chart 14); assay type: physicochemical; conditions: Borate/(M^I)2CO3 buffer pH 10.2
[4] = Formation of 1,5-cz-[Ln(Lig)] from Lig and Ln^III ions (metal dependent click-zip), MOPS/NaOH buffer pH 7.0, analytical HPLC (Charts 1, 2); conditions: MOPS/NaOH buffer pH 7.0
[5] = B: 1 day at 80° C., visible analyte free precipitate

Question: For `C#Cc1cccc(CN2CCN(CP(=O)(O)c3ccccc3)CCN(Cc3cccc(CN=[N+]=[N-])n3)CCN(CP(=O)(O)c3ccccc3)CC2)n1` [TD921], which “conversion to 1,5-cz-[M(Lig)], Sc^III” value ([1]; 1 week at 80° C.) is on record?
Answer: 0%

Question: What about the “conversion to 1,5-cz-[M(Lig)], Y^III” value ([1]; 1 week at 80° C.) of the same compound?
Answer: 14%

Question: And the “conversion to 1,5-cz-[M(Lig)], Sc^III” value ([1]; 1 hour at 80° C.)?
Answer: 0%

Question: And the “conversion to 1,5-cz-[M(Lig)], Y^III” value ([1]; 1 hour at 80° C.)?
Answer: 0%

Question: And the “conversion to 1,5-cz-[M(Lig)], Ba^II” value ([2]; 1 week at 80° C.)?
Answer: 0%

Question: And the “conversion to 1,5-cz-[M(Lig)], Sr^II” value ([2]; 1 week at 80° C.)?
Answer: 0%

Question: What about the “conversion to 1,5-cz-[M(Lig)], Ca^II” value ([2]; 1 week at 80° C.) of the same compound?
Answer: 0%

Question: What about the “conversion to 1,5-cz-[M(Lig)], Cd^II” value ([2]; 1 week at 80° C.) of the same compound?
Answer: 96%

Question: What about the “conversion to 1,5-cz-[M(Lig)], Ba^II” value ([2]; 1 hour at 80° C.) of the same compound?
Answer: 0%

Question: And the “conversion to 1,5-cz-[M(Lig)], Sr^II” value ([2]; 1 hour at 80° C.)?
Answer: 0%

Question: And the “conversion to 1,5-cz-[M(Lig)], Ca^II” value ([2]; 1 hour at 80° C.)?
Answer: 0%

Question: What about the “conversion to 1,5-cz-[M(Lig)], Cd^II” value ([2]; 1 hour at 80° C., TD714 sum of two diastereoisomers) of the same compound?
Answer: 92%

Question: And the “conversion to 1,4-cz-Lig isomer, Cs^I” value ([3]; A: 1 hour at 80° C.)?
Answer: 2%

Question: And the “conversion to 1,4-cz-Lig isomer, K^I” value ([3]; A: 1 hour at 80° C.)?
Answer: 2%

Question: And the “conversion to 1,4-cz-Lig isomer, Li^I” value ([3]; A: 1 hour at 80° C.)?
Answer: 1%

Question: And the “conversion to 1,4-cz-Lig isomer, Na^I” value ([3]; A: 1 hour at 80° C.)?
Answer: 2%

Question: And the “conversion to 1,4-cz-Lig isomer, Rb^I” value ([3]; A: 1 hour at 80° C.)?
Answer: 2%

Question: And the “conversion to 1,5-cz-Lig isomer, Cs^I” value ([3]; A: 1 hour at 80° C.)?
Answer: 2%

Question: And the “conversion to 1,5-cz-Lig isomer, K^I” value ([3]; A: 1 hour at 80° C.)?
Answer: 2%

Question: What about the “conversion to 1,5-cz-Lig isomer, Li^I” value ([3]; A: 1 hour at 80° C.) of the same compound?
Answer: 12%

Question: And the “conversion to 1,5-cz-Lig isomer, Na^I” value ([3]; A: 1 hour at 80° C.)?
Answer: 30%

Question: And the “conversion to 1,5-cz-Lig isomer, Rb^I” value ([3]; A: 1 hour at 80° C.)?
Answer: 2%

Question: And the “conversion to 1,4-cz-Lig isomer, Cs^I” value ([3]; B: 1 day at 80° C.)?
Answer: 31%

Question: What about the “conversion to 1,4-cz-Lig isomer, K^I” value ([3]; B: 1 day at 80° C.) of the same compound?
Answer: 31%

Question: What about the “conversion to 1,4-cz-Lig isomer, Na^I” value ([3]; B: 1 day at 80° C.) of the same compound?
Answer: 4%

Question: What about the “conversion to 1,4-cz-Lig isomer, Rb^I” value ([3]; B: 1 day at 80° C.) of the same compound?
Answer: 31%

Question: And the “conversion to 1,5-cz-Lig isomer, Cs^I” value ([3]; B: 1 day at 80° C.)?
Answer: 21%

Question: And the “conversion to 1,5-cz-Lig isomer, K^I” value ([3]; B: 1 day at 80° C.)?
Answer: 23%

Question: What about the “conversion to 1,5-cz-Lig isomer, Na^I” value ([3]; B: 1 day at 80° C.) of the same compound?
Answer: 89%

Question: What about the “conversion to 1,5-cz-Lig isomer, Rb^I” value ([3]; B: 1 day at 80° C.) of the same compound?
Answer: 21%

Question: And the “conversion to 1,4-cz-Lig isomer, Li^I” value [3, 5]?
Answer: 6%

Question: And the “conversion to 1,5-cz-Lig isomer, Li^I” value [3, 5]?
Answer: 86%

Question: What about the “conversion to 1,5-cz-[Ln(Lig)], Ce^III” value ([4]; after 1 week at 80° C.) of the same compound?
Answer: 0%

Question: What about the “conversion to 1,5-cz-[Ln(Lig)], Ce^III” value ([4]; after 1 hour at 80° C.) of the same compound?
Answer: 0%

Question: What about the “conversion to 1,5-cz-[Ln(Lig)], Dy^III” value ([4]; after 1 week at 80° C.) of the same compound?
Answer: 37%

Question: And the “conversion to 1,5-cz-[Ln(Lig)], Dy^III” value ([4]; after 1 hour at 80° C.)?
Answer: 1%

Question: And the “conversion to 1,5-cz-[Ln(Lig)], Er^III” value ([4]; after 1 week at 80° C.)?
Answer: 26%

Question: What about the “conversion to 1,5-cz-[Ln(Lig)], Er^III” value ([4]; after 1 hour at 80° C.) of the same compound?
Answer: 1%

Question: And the “conversion to 1,5-cz-[Ln(Lig)], Eu^III” value ([4]; after 1 week at 80° C.)?
Answer: 31%

Question: What about the “conversion to 1,5-cz-[Ln(Lig)], Eu^III” value ([4]; after 1 hour at 80° C.) of the same compound?
Answer: 1%

Question: And the “conversion to 1,5-cz-[Ln(Lig)], Gd^III” value ([4]; after 1 week at 80° C.)?
Answer: 28%

Question: What about the “conversion to 1,5-cz-[Ln(Lig)], Gd^III” value ([4]; after 1 hour at 80° C.) of the same compound?
Answer: 0%

Question: And the “conversion to 1,5-cz-[Ln(Lig)], Ho^III” value ([4]; after 1 week at 80° C.)?
Answer: 31%

Question: What about the “conversion to 1,5-cz-[Ln(Lig)], Ho^III” value ([4]; after 1 hour at 80° C.) of the same compound?
Answer: 1%

Question: What about the “conversion to 1,5-cz-[Ln(Lig)], La^III” value ([4]; after 1 week at 80° C.) of the same compound?
Answer: 0%

Question: What about the “conversion to 1,5-cz-[Ln(Lig)], La^III” value ([4]; after 1 hour at 80° C.) of the same compound?
Answer: 0%

Question: And the “conversion to 1,5-cz-[Ln(Lig)], Lu^III” value ([4]; after 1 week at 80° C.)?
Answer: 10%

Question: What about the “conversion to 1,5-cz-[Ln(Lig)], Lu^III” value ([4]; after 1 hour at 80° C.) of the same compound?
Answer: 1%

Question: And the “conversion to 1,5-cz-[Ln(Lig)], Nd^III” value ([4]; after 1 week at 80° C.)?
Answer: 43%

Question: What about the “conversion to 1,5-cz-[Ln(Lig)], Nd^III” value ([4]; after 1 hour at 80° C.) of the same compound?
Answer: 4%

Question: And the “conversion to 1,5-cz-[Ln(Lig)], Pr^III” value ([4]; after 1 week at 80° C.)?
Answer: 55%

Question: And the “conversion to 1,5-cz-[Ln(Lig)], Pr^III” value ([4]; after 1 hour at 80° C.)?
Answer: 5%

Question: What about the “conversion to 1,5-cz-[Ln(Lig)], Sm^III” value ([4]; after 1 week at 80° C.) of the same compound?
Answer: 42%

Question: And the “conversion to 1,5-cz-[Ln(Lig)], Sm^III” value ([4]; after 1 hour at 80° C.)?
Answer: 1%

Question: What about the “conversion to 1,5-cz-[Ln(Lig)], Tb^III” value ([4]; after 1 week at 80° C.) of the same compound?
Answer: 41%

Question: What about the “conversion to 1,5-cz-[Ln(Lig)], Tb^III” value ([4]; after 1 hour at 80° C.) of the same compound?
Answer: 1%

Question: What about the “conversion to 1,5-cz-[Ln(Lig)], Tm^III” value ([4]; after 1 week at 80° C.) of the same compound?
Answer: 18%

Question: What about the “conversion to 1,5-cz-[Ln(Lig)], Tm^III” value ([4]; after 1 hour at 80° C.) of the same compound?
Answer: 1%

Question: What about the “conversion to 1,5-cz-[Ln(Lig)], Yb^III” value ([4]; after 1 week at 80° C.) of the same compound?
Answer: 15%

Question: And the “conversion to 1,5-cz-[Ln(Lig)], Yb^III” value ([4]; after 1 hour at 80° C.)?
Answer: 1%
